# Results taken from patent publication US20230364118A1, “RIBITOL TREATMENT” (priority 2020, published 2023).
# Like-named read-outs stand apart in the source and are kept apart here.
# Columns and labels:
# In vitro Ames assay = assay type: cell-based
# [1] = Functional observational battery (FOB)
# Procedure: In this GLP study, the potential effects of ribitol on the CNS were evaluated in CD-1 mice utilizing the FOB. Male mice were randomly assigned to 4 groups of 8 and were administered a single oral dose of 0 (vehicle, purified water), 0.5, 1.0, or 2.0 g/kg ribitol. The FOB tests were conducted pre dose, and at 0.5, 1, 2, 4, and 24 hours post dose.
# [2] = 7-day repeat-dose oral toxicokinetics; assay type: in vivo, CD-1 mouse; details: for Cmax / Tmax / AUC(0-t): CD-1, mouse, plasma, po; for AUC(0-t): read-out: AUC0-24
# Procedure: Toxicokinetics were evaluated as part of a 7-day oral repeat-dose dose range finding study in CD-1 mice. […] On Days 1 and 7, blood was collected for plasma toxicokinetics (TK) from the treatment groups at 0 (pre-first dose), 0.5, 2, 4, 6 (pre-second dose), 6.5, 8, 10, 12, and 24 hours post-first dose. In the vehicle control group, blood was collected for plasma TK on Day 1 and Day 7 at 0.5 and 6.5 hours post-first dose.
# [3] = Plasma protein binding, rapid equilibrium dialysis; assay type: in vitro ADME
# Procedure: Protein binding studies with ribitol were performed in vitro using plasma from CD-1 mouse, Sprague-Dawley rat, Gottingen minipig, and human at 75 μg/mL (0.49 mM) and 200 μg/mL (1.31 mM) using the rapid equilibrium dialysis method. The percent of ribitol bound to plasma was approximately similar between the two concentrations tested in all species.
# Phase 2 patient study = assay type: in vivo, human; details: for average drop in fatigue (scale of 1 to 10): 90 days
# Text: Ribitol is being tested in an ongoing Phase 2 study with 14 patients receiving doses of either 6 g once daily (QD), 6 g twice daily (BID), or 12 g BID. Data is available following 3 months of therapeutic exposure in 8 subjects (6 g QD, n=4, 6 g BID, n=4). […] All 12 subjects have shown decreases in creatine kinase from baseline. Younger, ambulatory patients started with higher baseline creatine kinase values and had the largest magnitude drops. Decreases were observable starting at day 8 with continued declines through day 90. Efficacy studies are ongoing. Improvements in 10-meter walk test (MWT) to test ambulation, NSAD for gross motor function, PUL2.0 for upper limb function, and spirometry for respiratory function have been observed (Table 17). […] Decreases in patient-reported muscle fatigue over the 90-day treatment period has been observed in 7 of 8 patients. These 7/8 patients have reported decreases as recorded in a daily diary and noted on a scale of 1 to 10 where 1 indicates no fatigue and a 10 is the maximum level of fatigue.
# [4] = male, Bama, minipig, in vivo, 24 h
# Procedure: Minipigs received 0 (vehicle, purified water), 0.3, 1.0, or 2.0 g/kg of ribitol in a Latinsquare design on Days 1, 12, 17, and 25, respectively. […] Body weights were measured at baseline and on each dosing day. On each dosing occasion, ECG waveforms, heart rate, and blood pressure data were recorded from at least 2 hours prior to dose (to establish baseline values) to approximately 24 hours post-dose. ECG tracings of a minimum of 30 seconds duration were obtained from all minipigs twice prior to each dose (at least 30 minutes apart) and at 0.5, 2, 4, 8, 12, and 24 hours post dose.
# [5] = female, 0.5 g/kg, 0.5 g/kg/dose BID, Day 1, F
# [6] = female, 0.5 g/kg, 0.5 g/kg/dose BID, Day 7, F
# [7] = female, 1 g/kg, 1.0 g/kg/dose BID, Day 1, F
# [8] = female, 1 g/kg, 1.0 g/kg/dose BID, Day 7, F
# [9] = female, 1.5 g/kg, 1.5 g/kg/dose BID, Day 1, F
# [10] = female, 1.5 g/kg, 1.5 g/kg/dose BID, Day 7, F
# [11] = male, 0.5 g/kg, 0.5 g/kg/dose BID, Day 1, M
# [12] = male, 0.5 g/kg, 0.5 g/kg/dose BID, Day 7, M
# [13] = male, 1 g/kg, 1.0 g/kg/dose BID, Day 1, M
# [14] = male, 1 g/kg, 1.0 g/kg/dose BID, Day 7, M
# [15] = male, 1.5 g/kg, 1.5 g/kg/dose BID, Day 1, M
# [16] = male, 1.5 g/kg, 1.5 g/kg/dose BID, Day 7, M
smiles,measurement,setting,value
"OC[C@@H](O)[C@@H](O)[C@@H](O)CO [ribitol, (2R,3s,4S)-Pentane-1,2,3,4,5-pentol]",genotoxicity,In vitro Ames assay,devoid of genotoxicity potential
same,treatment-related effects on FOB parameters,"[1]; 0.5, 1.0, 2.0 g/kg, 0.5-24 h post dose",no treatment-related effects
same,safety margin for proposed clinical starting dose,"[1]; male, CD-1, mouse, in vivo, 24 h",19 fold
same,"NOEL, CNS effects (FOB)","[1]; single oral dose, male, highest dose tested",2000 mg/kg
same,drug accumulation,"[2]; Day 7 vs Day 1, any dose level",no apparent drug accumulation
same,time of maximum plasma concentrations,"[2]; after the first dose, Days 1 and 7 (exception females 0.5 g/kg BID Day 1)",6.5 h
same,Cmax,[2]; [5],141 µg/mL
same,Tmax,[2]; [5],0.5 h
same,AUC(0-t),[2]; [5],298 µg·h/mL
same,Cmax,[2]; [6],100 µg/mL
same,Tmax,[2]; [6],6.5 h
same,AUC(0-t),[2]; [6],218 µg·h/mL
same,Cmax,[2]; [7],282 µg/mL
same,Tmax,[2]; [7],6.5 h
same,AUC(0-t),[2]; [7],427 µg·h/mL
same,Cmax,[2]; [8],210 µg/mL
same,Tmax,[2]; [8],6.5 h
same,AUC(0-t),[2]; [8],319 µg·h/mL
same,Cmax,[2]; [9],339 µg/mL
same,Tmax,[2]; [9],6.5 h
same,AUC(0-t),[2]; [9],504 µg·h/mL
same,Cmax,[2]; [10],266 µg/mL
same,Tmax,[2]; [10],6.5 h
same,AUC(0-t),[2]; [10],602 µg·h/mL
same,Cmax,[2]; [11],121 µg/mL
same,Tmax,[2]; [11],6.5 h
same,AUC(0-t),[2]; [11],246 µg·h/mL
same,Cmax,[2]; [12],118 µg/mL
same,Tmax,[2]; [12],6.5 h
same,AUC(0-t),[2]; [12],170 µg·h/mL
same,Cmax,[2]; [13],265 µg/mL
same,Tmax,[2]; [13],6.5 h
same,AUC(0-t),[2]; [13],414 µg·h/mL
same,Cmax,[2]; [14],237 µg/mL
same,Tmax,[2]; [14],6.5 h
same,AUC(0-t),[2]; [14],345 µg·h/mL
same,Cmax,[2]; [15],316 µg/mL
same,Tmax,[2]; [15],6.5 h
same,AUC(0-t),[2]; [15],595 µg·h/mL
same,Cmax,[2]; [16],305 µg/mL
same,Tmax,[2]; [16],6.5 h
same,AUC(0-t),[2]; [16],562 µg·h/mL
same,% Binding,"[3]; 75 μg/mL (0.49 mM), CD-1 mouse plasma",44.6 ± 1.3%
same,% Binding,"[3]; 75 μg/mL (0.49 mM), Gottingen minipig plasma",44.1 ± 1.0%
same,% Binding,"[3]; 75 μg/mL (0.49 mM), Sprague-Dawley rat plasma",43.3 ± 3.4%
same,% Binding,"[3]; 75 μg/mL (0.49 mM), human plasma",36.5 ± 1.8%
same,% Binding,"[3]; 200 μg/mL (1.31 mM), CD-1 mouse plasma",42.5 ± 0.3%
same,% Binding,"[3]; 200 μg/mL (1.31 mM), Gottingen minipig plasma",38.6 ± 2.4%
same,% Binding,"[3]; 200 μg/mL (1.31 mM), Sprague-Dawley rat plasma",40.3 ± 0.5%
same,% Binding,"[3]; 200 μg/mL (1.31 mM), human plasma",34.6 ± 0.3%
same,fraction unbound,"[3]; human plasma, 0.49 and 1.31 mM, range",0.635 to 0.654
same,subjects with increase in glycosylation of αDG,"Phase 2 patient study; 6 g BID, 3 months",3 of 4
same,average decrease in creatine kinase,"Phase 2 patient study; 6 g BID, day 90",77%
same,subjects with increase in glycosylation of αDG,"Phase 2 patient study; 6 g QD, 3 months",4 of 4
same,average decrease in creatine kinase,"Phase 2 patient study; 6 g QD, day 90",90%
same,average decrease in creatine kinase,"Phase 2 patient study; 12 g BID, day 8",33%
same,patients with decrease in patient-reported muscle fatigue,Phase 2 patient study; 90-day treatment period,7 of 8
same,Mean 10MWT (Ambulation),"Phase 2 patient study; Baseline, Cohort 1 (6 g QD)",2.06 m/sec
same,Mean NSAD (Gross Motor Function),"Phase 2 patient study; Baseline, Cohort 1 (6 g QD)",33.8
same,Mean PUL2.0 (Upper Limb Function),"Phase 2 patient study; Baseline, Cohort 1 (6 g QD)",37.3
same,Mean 10MWT (Ambulation),"Phase 2 patient study; Baseline, Cohort 2 (6 g BID)",1.48 m/sec
same,Mean NSAD (Gross Motor Function),"Phase 2 patient study; Baseline, Cohort 2 (6 g BID)",28.5
same,Mean PP Supine FVC (Respiratory Function),"Phase 2 patient study; Baseline, Cohort 2 (6 g BID)",54.3
same,Mean PUL2.0 (Upper Limb Function),"Phase 2 patient study; Baseline, Cohort 2 (6 g BID)",35.8
same,Mean 10MWT (Ambulation),"Phase 2 patient study; Baseline, Overall",1.77 m/sec
same,Mean NSAD (Gross Motor Function),"Phase 2 patient study; Baseline, Overall",31.1
same,Mean PP Supine FVC (Respiratory Function),"Phase 2 patient study; Baseline, Overall",54.3
same,Mean PUL2.0 (Upper Limb Function),"Phase 2 patient study; Baseline, Overall",36.5
same,Mean 10MWT (Ambulation),"Phase 2 patient study; Day 90, Cohort 1 (6 g QD)",2.82 m/sec
same,Mean NSAD (Gross Motor Function),"Phase 2 patient study; Day 90, Cohort 1 (6 g QD)",33.5
same,Mean PP Supine FVC (Respiratory Function),"Phase 2 patient study; Day 90, Cohort 1 (6 g QD)",79.5
same,Mean PUL2.0 (Upper Limb Function),"Phase 2 patient study; Day 90, Cohort 1 (6 g QD)",37.3
same,Mean 10MWT (Ambulation),"Phase 2 patient study; Day 90, Cohort 2 (6 g BID)",1.56 m/sec
same,Mean NSAD (Gross Motor Function),"Phase 2 patient study; Day 90, Cohort 2 (6 g BID)",29.0
same,Mean PP Supine FVC (Respiratory Function),"Phase 2 patient study; Day 90, Cohort 2 (6 g BID)",50.0
same,Mean PUL2.0 (Upper Limb Function),"Phase 2 patient study; Day 90, Cohort 2 (6 g BID)",36.3
same,Mean 10MWT (Ambulation),"Phase 2 patient study; Day 90, Overall",2.10 m/sec
same,Mean NSAD (Gross Motor Function),"Phase 2 patient study; Day 90, Overall",31.3
same,Mean PP Supine FVC (Respiratory Function),"Phase 2 patient study; Day 90, Overall",64.8
same,Mean PUL2.0 (Upper Limb Function),"Phase 2 patient study; Day 90, Overall",36.8
same,Mean 10MWT (Ambulation),"Phase 2 patient study; Delta, Cohort 1 (6 g QD)",0.10 m/sec
same,Mean NSAD (Gross Motor Function),"Phase 2 patient study; Delta, Cohort 1 (6 g QD)",−0.3
same,Mean PUL2.0 (Upper Limb Function),"Phase 2 patient study; Delta, Cohort 1 (6 g QD)",0.0
same,Mean 10MWT (Ambulation),"Phase 2 patient study; Delta, Cohort 2 (6 g BID)",0.08 m/sec
same,Mean NSAD (Gross Motor Function),"Phase 2 patient study; Delta, Cohort 2 (6 g BID)",0.5
same,Mean PP Supine FVC (Respiratory Function),"Phase 2 patient study; Delta, Cohort 2 (6 g BID)",−4.3
same,Mean PUL2.0 (Upper Limb Function),"Phase 2 patient study; Delta, Cohort 2 (6 g BID)",0.5
same,Mean 10MWT (Ambulation),"Phase 2 patient study; Delta, Overall",0.09 m/sec
same,Mean NSAD (Gross Motor Function),"Phase 2 patient study; Delta, Overall",0.1
same,Mean PP Supine FVC (Respiratory Function),"Phase 2 patient study; Delta, Overall",−4.3
same,Mean PUL2.0 (Upper Limb Function),"Phase 2 patient study; Delta, Overall",0.3
same,average increase in glycosylation of αDG,"Phase 2 patient study; both cohorts (6 g QD, 6 g BID), 3 months",13%
same,average drop in fatigue (scale of 1 to 10),Phase 2 patient study; cohort 1 (6 g QD),1.3 points
same,average drop in fatigue (scale of 1 to 10),Phase 2 patient study; cohort 2 (6 g BID),1.5 points
same,NOEL above efficacious dose of 0.5 g/kg in FKRP mutant mouse models,[4],approximately 4 fold
same,safety margin for proposed clinical starting dose,[4],227 fold
